Source: patent publication US11214803B2, “Modulators of YAP1 expression” (Ionis Pharmaceuticals, Inc., priority 2019, dated 2022)
Strand notation (5' to 3'): a small letter for the sugar, then the base; units joined by * are phosphorothioate-linked, units joined directly phosphodiester-linked; [ ] holds rarer units or linkages, { } end groups; capitals alone tell only the bases. k = constrained ethyl (cEt); [5mC] = 5-methylcytosine; d = 2'-deoxy (DNA)

System: Yap1 mRNA
Test: Antisense inhibition of human Yap1 in A-431 cells by cEt gapmers, single dose (Example 3, RTS36584)
Type: cell-based
Summary of the method: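 Single-dose free-uptake screen of 3-10-3 cEt gapmers in A-431 cells at 2,000 nM over about 48 h. Values are % untreated control Yap1 mRNA.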

[1] = Table 27, Yap1 mRNA by 3-10-3 cEt gapmers targeting SEQ ID NO.: 1, and 2, percent of untreated control
[2] = Table 28, Yap1 mRNA as percent of untreated control, 3-10-3 cEt gapmers targeting SEQ ID NO.: 1, and 2
[3] = Table 13, A-431 cells, 5,000 cells per well, free uptake, 2,000 nM modified oligonucleotide, approx. 48 hours, RTS36584, normalized to RIBOGREEN, Yap1 mRNA relative to untreated control cells
[4] = Table 12, A-431 cells, 5,000 cells per well, free uptake, 2,000 nM modified oligonucleotide, approx. 48 hours, RTS36584, normalized to RIBOGREEN, Yap1 mRNA relative to untreated control cells
[5] = Table 26, Yap1 mRNA by 3-10-3 cEt gapmers targeting SEQ ID NO.: 1, and 2, percent of untreated control
[6] = Table 10, A-431 cells, 5,000 cells per well, free uptake, 2,000 nM oligonucleotide, approx. 48 hours, primer probe set RTS36584, Yap1 mRNA normalized to RIBOGREEN, percent of untreated control
[7] = Table 29, Yap1 mRNA as percent of untreated control, 3-10-3 cEt gapmers targeting SEQ ID NO.: 1, and 2
[8] = Table 35, Yap1 mRNA as percent of untreated control, 3-10-3 cEt gapmers targeting SEQ ID NO: 1 and 2, single dose
[9] = Table 11, A-431 cells, 5,000 cells per well, free uptake, 2,000 nM oligonucleotide, approx. 48 hours, primer probe set RTS36584, Yap1 mRNA normalized to RIBOGREEN, percent of untreated control
[10] = Table 9, A-431 cells, 5,000 cells per well, free uptake, 2,000 nM, approximately 48 hours, RTS36584, normalized to RIBOGREEN, Yap1 mRNA relative to untreated control cells
[11] = Table 34, Yap1 mRNA as percent of untreated control, 3-10-3 cEt gapmers targeting SEQ ID NO: 1 and 2, single dose

1075309 (antisense kT*kA*kA*dT*dT*dA*dA*dA*d[5mC]*dG*dA*dA*dA*k[5mC]*kA*k[5mC]) [compound 1075309]
YAP1 (% UTC) [1]: 110 % UTC

1074669 (antisense kA*kT*k[5mC]*d[5mC]*d[5mC]*dA*dA*d[5mC]*dA*dA*d[5mC]*dA*dT*kG*k[5mC]*kT) [compound 1074669]
YAP1 (% UTC) [1]: 13 % UTC

1074958 (antisense kT*kA*kA*d[5mC]*d[5mC]*d[5mC]*dG*dG*dG*dT*dT*dT*dT*kT*kG*kT) [compound 1074958]
YAP1 (% UTC) [2]: 107 % UTC

958760 (antisense kA*kG*kT*dA*dA*dT*dA*dG*dA*dT*d[5mC]*dT*dA*k[5mC]*kA*kA) [Compound 958760]
YAP1 (% UTC) [3]: 76 % UTC

958439 (antisense kG*k[5mC]*kG*d[5mC]*d[5mC]*d[5mC]*d[5mC]*dG*dG*d[5mC]*dT*d[5mC]*d[5mC]*kA*k[5mC]*kT) [Compound 958439]
YAP1 (% UTC) [4]: 77 % UTC

1074924 (antisense k[5mC]*k[5mC]*kT*dG*d[5mC]*dA*dA*dA*dT*dA*dG*dG*dA*kG*kA*kG) [compound 1074924]
YAP1 (% UTC) [5]: 87 % UTC

958802 (antisense kA*kG*kA*dT*dA*dA*dT*d[5mC]*dA*dT*d[5mC]*d[5mC]*dT*k[5mC]*kA*kA) [Compound 958802]
YAP1 (% UTC) [6]: 25 % UTC

958585 (k[5mC]*kT*k[5mC]*dT*dA*dT*d[5mC]*dA*dA*dG*dG*dT*d[5mC]*k[5mC]*k[5mC]*k[5mC]; antisense) [Compound 958585]
YAP1 (% UTC) [3]: 5 % UTC

1075247 (k[5mC]*kT*kA*dA*dG*dA*dT*dA*dA*d[5mC]*dT*dA*dG*kT*kA*kA; antisense) [compound 1075247]
YAP1 (% UTC) [7]: 101 % UTC

1074165 (k[5mC]*k[5mC]*k[5mC]*dA*dG*dG*d[5mC]*dG*dA*dG*d[5mC]*dG*dA*kG*kG*kG; antisense) [compound 1074165]
YAP1 (% UTC) [8]: 90 % UTC

1075183 (kA*kT*kT*dA*d[5mC]*dT*dA*dA*dG*dA*d[5mC]*dA*dG*kT*kG*kG; antisense) [compound 1075183]
YAP1 (% UTC) [7]: 15 % UTC

958688 (antisense kG*kG*k[5mC]*dT*dA*dT*dG*dT*dA*dG*d[5mC]*d[5mC]*dT*kT*k[5mC]*k[5mC]) [Compound 958688]
YAP1 (% UTC) [9]: 82 % UTC

958630 (antisense kG*k[5mC]*kG*dG*dT*dA*dA*d[5mC]*dT*d[5mC]*dT*dT*d[5mC]*kT*kT*kT) [Compound 958630]
YAP1 (% UTC) [3]: 52 % UTC

958476 (antisense kT*kT*k[5mC]*d[5mC]*dG*dG*dT*dG*d[5mC]*dA*dT*dG*dT*kG*kT*k[5mC]) [Compound 958476]
YAP1 (% UTC) [10]: 2 % UTC

958533 (kG*k[5mC]*kA*dT*dA*dG*dA*dA*dG*dT*dA*dG*dG*kA*kG*k[5mC]; antisense) [Compound 958533]
YAP1 (% UTC) [9]: 3 % UTC

958661 (kT*kG*k[5mC]*d[5mC]*dG*dT*dT*dG*dG*d[5mC]*d[5mC]*d[5mC]*d[5mC]*kT*k[5mC]*k[5mC]; antisense) [Compound 958661]
YAP1 (% UTC) [10]: 120 % UTC

1075820 (kT*k[5mC]*kT*dG*dA*dA*d[5mC]*dG*dG*dG*d[5mC]*dT*dG*kT*kT*kG; antisense) [compound 1075820]
YAP1 (% UTC) [5]: 27 % UTC

958684 (kG*k[5mC]*kT*dG*dA*dA*dG*dA*d[5mC]*dG*dG*d[5mC]*d[5mC]*k[5mC]*kT*kT; antisense) [Compound 958684]
YAP1 (% UTC) [4]: 70 % UTC

1075861 (antisense kT*kA*kA*d[5mC]*dT*dA*dT*dA*dA*dG*d[5mC]*dT*dA*kT*kG*kT) [compound 1075861]
YAP1 (% UTC) [8]: 78 % UTC

1074894 (antisense kT*kG*k[5mC]*dT*dG*dA*dA*dG*dT*dT*dT*dA*dG*k[5mC]*k[5mC]*kT) [compound 1074894]
YAP1 (% UTC) [2]: 79 % UTC

1074543 (k[5mC]*k[5mC]*kT*dA*dG*dG*d[5mC]*dA*d[5mC]*dT*dA*dT*d[5mC]*k[5mC]*kA*k[5mC]; antisense) [compound 1074543]
YAP1 (% UTC) [7]: 57 % UTC

958633 (antisense kT*kG*kT*d[5mC]*dA*dT*d[5mC]*dA*dG*dG*dT*dT*dA*kA*kG*kT) [Compound 958633]
YAP1 (% UTC) [9]: 76 % UTC

958488 (kA*kG*kG*dA*dA*dT*dG*dG*d[5mC]*dA*dT*d[5mC]*d[5mC]*kA*kT*k[5mC]; antisense) [Compound 958488]
YAP1 (% UTC) [9]: 41 % UTC

1076276 (k[5mC]*kT*kT*dT*dA*dG*dG*dA*dG*dT*d[5mC]*dA*dG*kA*kA*k[5mC]; antisense) [compound 1076276]
YAP1 (% UTC) [11]: 59 % UTC

1074868 (kG*kT*kA*d[5mC]*d[5mC]*dT*dA*dA*d[5mC]*dA*dT*dA*dT*kG*kA*kG; antisense) [compound 1074868]
YAP1 (% UTC) [11]: 74 % UTC

1075444 (antisense kA*kT*kA*dA*dA*dT*d[5mC]*d[5mC]*dT*d[5mC]*dA*dT*dG*kT*kG*kG) [compound 1075444]
YAP1 (% UTC) [11]: 112 % UTC

1075477 (k[5mC]*kT*kT*dT*dA*dT*d[5mC]*dT*d[5mC]*dA*d[5mC]*dT*dA*kG*k[5mC]*kT; antisense) [compound 1075477]
YAP1 (% UTC) [8]: 86 % UTC

958772 (antisense k[5mC]*kA*kA*d[5mC]*dA*dA*dA*d[5mC]*dA*dT*dA*dG*dT*kT*kA*k[5mC]) [Compound 958772]
YAP1 (% UTC) [6]: 61 % UTC

1074732 (k[5mC]*k[5mC]*kA*dG*dG*dT*dA*dT*d[5mC]*dA*d[5mC]*dA*dG*kT*kA*k[5mC]; antisense) [compound 1074732]
YAP1 (% UTC) [5]: 30 % UTC

958471 (antisense k[5mC]*kT*kT*dA*dG*dA*dT*d[5mC]*d[5mC]*dT*dT*d[5mC]*dA*k[5mC]*kA*kG) [Compound 958471]
YAP1 (% UTC) [10]: 14 % UTC

1075349 (antisense kA*kT*kT*dA*dA*dA*dG*d[5mC]*dT*d[5mC]*dA*dT*dT*kG*kA*kT) [compound 1075349]
YAP1 (% UTC) [8]: 81 % UTC

1074862 (kT*kA*kT*dG*dA*dG*d[5mC]*dA*dT*dG*d[5mC]*dT*d[5mC]*kT*kT*kA; antisense) [compound 1074862]
YAP1 (% UTC) [2]: 56 % UTC

958670 (kG*kG*kT*d[5mC]*dT*dT*dG*dG*dT*dG*dA*dT*dT*kG*kG*k[5mC]; antisense) [Compound 958670]
YAP1 (% UTC) [3]: 20 % UTC

958509 (kA*kT*kG*dT*dT*dA*dT*dG*dT*dT*dT*dG*dG*kG*kT*kG; antisense) [Compound 958509]
YAP1 (% UTC) [4]: 4 % UTC

1074765 (k[5mC]*kA*kA*dT*dG*d[5mC]*dT*dA*d[5mC]*d[5mC]*d[5mC]*dA*dA*kT*kA*k[5mC]; antisense) [compound 1074765]
YAP1 (% UTC) [1]: 34 % UTC

958787 (antisense kT*kG*kG*dG*d[5mC]*dA*dA*dA*dG*dT*dT*d[5mC]*d[5mC]*kT*k[5mC]*kT) [Compound 958787]
YAP1 (% UTC) [6]: 67 % UTC

958678 (kG*kG*kA*dG*dG*dA*dG*dT*d[5mC]*dA*d[5mC]*d[5mC]*dA*kT*kG*kG; antisense) [Compound 958678]
YAP1 (% UTC) [9]: 74 % UTC

1074837 (kT*kA*kA*d[5mC]*dA*dA*d[5mC]*dA*dT*dG*d[5mC]*dT*dT*kG*k[5mC]*kG; antisense) [compound 1074837]
YAP1 (% UTC) [8]: 11 % UTC

1074604 (DNA kT*kT*kA*dT*dT*dA*dA*dT*d[5mC]*dT*dG*dA*dT*k[5mC]*kA*k[5mC]) [compound 1074604]
YAP1 (% UTC) [5]: 12 % UTC

1075213 (kA*k[5mC]*kA*dA*dT*dA*dA*dA*dG*dG*dG*dT*d[5mC]*k[5mC]*kT*kA; antisense) [compound 1075213]
YAP1 (% UTC) [1]: 33 % UTC

958489 (kT*kT*k[5mC]*dT*dA*dA*dG*dT*d[5mC]*dT*dG*dA*dG*kT*kA*kT; antisense) [Compound 958489]
YAP1 (% UTC) [4]: 14 % UTC

1075316 (antisense kG*kT*kA*dT*dA*dT*dA*dG*dA*dT*dA*d[5mC]*d[5mC]*k[5mC]*kA*k[5mC]) [compound 1075316]
YAP1 (% UTC) [11]: 25 % UTC

958514 (kT*kA*k[5mC]*dT*dA*dG*dT*d[5mC]*dA*dT*dG*dT*dA*kT*kT*k[5mC]; antisense) [Compound 958514]
YAP1 (% UTC) [4]: 20 % UTC

1076404 (antisense kT*kA*kT*dT*dT*dA*dA*dG*dA*d[5mC]*d[5mC]*dT*dG*kG*kT*kG) [compound 1076404]
YAP1 (% UTC) [11]: 13 % UTC

1076493 (kT*kG*kA*d[5mC]*dA*dA*dT*dA*dA*dG*dG*dG*dA*k[5mC]*kA*kA; antisense) [compound 1076493]
YAP1 (% UTC) [1]: 34 % UTC

1075597 (antisense kA*kT*kT*dA*dA*d[5mC]*dA*dT*dT*dT*dG*d[5mC]*d[5mC]*k[5mC]*kG*k[5mC]) [compound 1075597]
YAP1 (% UTC) [1]: 47 % UTC
